Source: patent US20170087174A1, “COMBINATION THERAPY REGIMEN FOR TREATMENT OF HCV” (JANSSEN PHARMACEUTICALS, INC., priority 2015, published 2017)
Where two headings read alike, the source gives them in different places.

What was measured:
[1] = PK of single agents vs fixed dose combinations (FDC), single oral dose in healthy volunteers; type: in vivo, human; settings: for Cmax / AUC(0-t) / AUC(0-inf) / Tmax: human, plasma, oral; for Cmax: read-out: Cmax (mean ± SD); for AUC(0-t): read-out: AUClast (mean ± SD); for AUC(0-inf): read-out: AUC∞ (mean ± SD); for Tmax: read-out: tmax (median [range])
Experimental: SMV (100 mg), ODV (50 mg), and Compound (III) (800 mg) were administered as three different formulations or together as single doses in vivo to healthy volunteers. The arms of the study included: • Arm 1 (Reference Arm): Single oral doses of single agents, one SMV 100-mg capsule, one ODV 50-mg tablet as granule layered solid dispersion with copovidone and poloxamers, and two Compound (III) 400-mg tablets, administered together. • Arm 2: Single oral dose of fixed dose combination (FDC02): SMV 100 mg+ODV 50 mg as a spray dried solid dispersion with HPMC-AS L in a ratio ODV/HPMC-AS L 1/1 w/w+Compound (III) 800 mg • Arm 3: Single oral dose of fixed dose combination (FDC04): SMV 100 mg+ODV 50 mg as a spray dried solid dispersion with HPMC-AS L in a ratio ODV/HPMC-AS L 1/3 w/w+Compound (III) 800 mg • Arm 4: Single oral dose of fixed dose combination (FDC01): SMV 100 mg+ODV 50 mg as a spray dried solid dispersion with copovidone and poloxamers+Compound (III) 800 mg
PK parameters, including Cmax, tmax, AUClast, and AUC∞ were measured for Compound (III), ODV, SMV, and metabolites Compound A-I and Compound A-3 for each Arm of the study. Arms that included fixed dose combinations (FDC) (Arm 2, Arm 3, and Arm 4) were then compared to a single oral dose (Arm 1, the reference Arm). Table 9, Table 10, Table 11, Table 12 and Table 13 display relevant PK parameters and FIG. 9, FIG. 10, FIG. 11, FIG. 12, and FIG. 13 depict the plasma concentration over time of SMV, ODV, Compound A-1, and Compound A-3 for each Arm of the study.

[2] = test system: CYP (cytochrome P450 enzymes); experiment: CYP inhibition in vitro
[3] = Phase 2a open-label combination study: pharmacokinetics (exposure); type: in vivo, human; settings: in vivo
Experimental: A randomized, Phase 2a, open-label study was carried out to evaluate the safety, pharmacokinetics and efficacy of the combination of Compound (III), Odalasvir and Simeprevir in Genotype 1 treatment-naïve subjects with chronic hepatitis C. Other treatment-naïve subjects included Genotype 2, 3, 4, 5 and 6.
The aim of the study was to determine the efficacy, pharmacokinetics (PK), and safety of Compound (III)+Odalasvir±SMV in HCV-infected subjects.
This was an open-label study evaluating various dosing regimens of Compound (III)+Odalasvir±SMV for 6-8 weeks in treatment-naïve HCV-infected subjects with varying clinical characteristics (e.g., GT 1 or 3, presence/absence of compensated Child Pugh A cirrhosis). Efficacy, PK and safety evaluations were conducted during and through 24 weeks post dosing. Up to 15 cohorts were enrolled; data was generated from cohorts that have completed dosing.

[4] = Arm 1 (reference): single agents together
[5] = Arm 2 (FDC02) vs reference (Arm 1)
[6] = Arm 3 (FDC04) vs reference (Arm 1)
[7] = Arm 4 (FDC01) vs reference (Arm 1)
[8] = Arm 1 (reference): single agents together, SMV 100-mg capsule, ODV 50-mg tablet, two Compound (III) 400-mg tablets
[9] = Arm 2: FDC02, SMV 100 mg + ODV 50 mg (ODV/HPMC-AS L 1/1 w/w) + Compound (III) 800 mg
[10] = Arm 3: FDC04, SMV 100 mg + ODV 50 mg (ODV/HPMC-AS L 1/3 w/w) + Compound (III) 800 mg
[11] = Arm 4: FDC01, SMV 100 mg + ODV 50 mg (copovidone and poloxamers) + Compound (III) 800 mg

C[C@H](NP(=O)(O)OC[C@@]1(F)O[C@@H](n2ccc(=O)[nH]c2=O)[C@](C)(O)[C@@H]1O)C(=O)O [Compound A-3]
t1/2term (mean ± SD) [1, 4]: 2.6 ± 1.4 h
Least Square Means Ratio, AUClast [1, 5]: 103.24%
Least Square Means Ratio, AUC∞ [1, 5]: 104.40%
Least Square Means Ratio, Cmax [1, 5]: 102.81%
t1/2term (mean ± SD) ([1]; Arm 2: FDC02): 2.3 ± 0.6 h
Least Square Means Ratio, AUClast [1, 6]: 115.78%
Least Square Means Ratio, AUC∞ [1, 6]: 114.92%
Least Square Means Ratio, Cmax [1, 6]: 119.82%
t1/2term (mean ± SD) ([1]; Arm 3: FDC04): 2.9 ± 1.5 h
Least Square Means Ratio, AUClast [1, 7]: 116.82%
Least Square Means Ratio, AUC∞ [1, 7]: 115.62%
Least Square Means Ratio, Cmax [1, 7]: 123.77%
t1/2term (mean ± SD) ([1]; Arm 4: FDC01): 2.5 ± 0.7 h
Cmax [1, 8]: 163 ± 61.8 ng/mL
AUC(0-t) [1, 4]: 800 ± 307 ng·h/mL
AUC(0-inf) [1, 4]: 823 ± 311 ng·h/mL
Tmax [1, 4]: 3 h
Cmax [1, 9]: 163 ± 45.2 ng/mL
AUC(0-t) ([1]; Arm 2: FDC02): 790 ± 157 ng·h/mL
AUC(0-inf) ([1]; Arm 2: FDC02): 817 ± 133 ng·h/mL
Tmax ([1]; Arm 2: FDC02): 3 h
Cmax [1, 10]: 189 ± 49.7 ng/mL
AUC(0-t) ([1]; Arm 3: FDC04): 895 ± 223 ng·h/mL
AUC(0-inf) ([1]; Arm 3: FDC04): 914 ± 226 ng·h/mL
Tmax ([1]; Arm 3: FDC04): 3.5 h
Cmax [1, 11]: 197 ± 62.1 ng/mL
AUC(0-t) ([1]; Arm 4: FDC01): 909 ± 244 ng·h/mL
AUC(0-inf) ([1]; Arm 4: FDC01): 926 ± 245 ng·h/mL
Tmax ([1]; Arm 4: FDC01): 4 h
IC50 [2]: > 48 µM

C[C@]1(O)[C@H](n2ccc(=O)[nH]c2=O)O[C@](F)(CO)[C@H]1O [Compound A-1]
increase of exposure with dose [3]: less than proportionally
t1/2term (mean ± SD) [1, 4]: 19.6 ± 2.7 h
Least Square Means Ratio, AUClast [1, 5]: 118.54%
Least Square Means Ratio, Cmax [1, 5]: 133.00%
t1/2term (mean ± SD) ([1]; Arm 2: FDC02): 20.5 ± 3.3 h
Least Square Means Ratio, AUClast [1, 6]: 121.29%
Least Square Means Ratio, Cmax [1, 6]: 119.83%
t1/2term (mean ± SD) ([1]; Arm 3: FDC04): 20.2 ± 3.5 h
Least Square Means Ratio, AUClast [1, 7]: 120.45%
Least Square Means Ratio, Cmax [1, 7]: 121.37%
t1/2term (mean ± SD) ([1]; Arm 4: FDC01): 18.3 ± 3.5 h
Cmax [1, 8]: 498 ± 154 ng/mL
AUC(0-t) [1, 4]: 3910 ± 1150 ng·h/mL
AUC(0-inf) [1, 4]: 4530 ± 1800 ng·h/mL
Tmax [1, 4]: 4 h
Cmax [1, 9]: 681 ± 268 ng/mL
AUC(0-t) ([1]; Arm 2: FDC02): 4680 ± 1550 ng·h/mL
AUC(0-inf) ([1]; Arm 2: FDC02): 4370 ± 1340 ng·h/mL
Tmax ([1]; Arm 2: FDC02): 4 h
Cmax [1, 10]: 598 ± 192 ng/mL
AUC(0-t) ([1]; Arm 3: FDC04): 4710 ± 1310 ng·h/mL
AUC(0-inf) ([1]; Arm 3: FDC04): 5380 ± 1560 ng·h/mL
Tmax ([1]; Arm 3: FDC04): 4 h
Cmax [1, 11]: 607 ± 208 ng/mL
AUC(0-t) ([1]; Arm 4: FDC01): 4690 ± 1420 ng·h/mL
AUC(0-inf) ([1]; Arm 4: FDC01): 4560 ± 787 ng·h/mL
Tmax ([1]; Arm 4: FDC01): 4 h
IC50 [2]: > 40 µM
